Results published in ChEMBL document CHEMBL5506015, “Discovery of a Meisoindigo-Derived PROTAC as the ATM Degrader: Revolutionizing Colorectal Cancer Therapy via Synthetic Lethality with ATR Inhibitors” (J Med Chem, 2024).
Calls of active or inactive are those of the source. The calls are words filed in the database; no cut-off is given here.

Assays:
SW-620 [1] = experiment: Induction of cell cycle arrest in human SW620 cells assessed as accumulation of cells at G0/G1 phase incubated for 12 hrs by flow cytometry based analysis; assay type: functional; details: dose 5-10 µM
LoVo = experiment: Cytotoxicity against human LoVo cells assessed as reduction in cell viability incubated for 48 hrs by MTT assay
SW-620 [2] = experiment: Antitumor activity against human SW620 cells xenografted in Balb/c nude mouse model assessed as inflammatory cell infiltration at 15 mg/kg/day measured after 14 days by H and E staining based analysis; assay type: functional, organism-based; details: time 14.0 day
[3] = Downregulation of ATM level in human HCT-116 cells transfected with NC shRNA by immunoblot analysis; assay type: functional
SW480 [4] = experiment: Downregulation of BCL2 level in human SW480 cells at 5 to 20 uM measured after 8 hrs by immunoblot analysis; assay type: functional, cell-based; details: dose 5-20 µM
[5] = Downregulation of ATM level in human SW480 cells transfected with ATM shRNA by immunoblot analysis; assay type: functional
SW480 [6] = experiment: Downregulation of BCL2 level in human SW480 cells at 1.25 to 10 uM measured after 12 hrs by immunoblot analysis; assay type: functional, cell-based; details: dose 1.25-10 µM
K562 [7] = experiment: Induction of DNA damage in human K562 cells assessed as gamma-H2AX accumulation at 20 uM by immunoblot analysis; assay type: functional, cell-based; details: time <= 12.0 hrs, TDE = time-dependent effect
HCT-116 [8] = experiment: Cytotoxicity against human HCT-116 cells transfected with ATM shRNA assessed as reduction in cell viability measured after 48 hrs by MTT assay; details: HCT-116, 48 h
SW480 [9] = experiment: Downregulation of ATM level in human SW480 cells measured after 12 hrs by immunoblot analysis; assay type: functional, cell-based; details: dose 1.25-10 µM
SW-620 [10] = experiment: Antitumor activity against human SW620 cells xenografted in Balb/c nude mouse model assessed as necrosis at 15 mg/kg/day measured after 14 days by H and E staining based analysis; assay type: functional, organism-based; details: time 14.0 day
SW-620 [11] = experiment: Downregulation of PROX1 level in human SW620 cells at 10 uM measured after 12 hrs in presence of tert-butyl ((S)-1-((2S,4R)-4-hydroxy-2-((4-(4-methylthiazol-5-yl)benzyl)carbamoyl)pyrrolidin-1-yl)-3,3-dimethyl-1-oxobutan-2-yl)carbamate by immunoblot analysis; assay type: functional, cell-based
SW-620 [12] = experiment: Downregulation of KDM4B level in human SW620 cells measured after 12 hrs by immunoblot analysis; assay type: functional, cell-based; details: dose 1.25-10 µM
[13] = Toxicity in Balb/c nude mouse assessed as effect on body weight loss at 15 mg/kg/day administered for 14 days […]; assay type: organism-based; details: in vivo, 336 h, time 14 day
SW480 [14] = experiment: Downregulation of ATM level in human SW480 cells at 10 uM by immunoblot analysis; assay type: functional, cell-based; details: time <= 12.0 hrs, TDE = time-dependent effect
K562 [15] = experiment: Cytotoxicity against human K562 cells assessed as reduction in cell viability incubated for 48 hrs by MTT assay; details: K562, 48 h
SW480 [16] = experiment: Cytotoxicity against human SW480 cells transfected with ATM shRNA assessed as reduction in cell viability measured after 48 hrs by MTT assay; details: SW480, 48 h
[17] = Toxicity in Balb/c nude mouse assessed as drug tolerance at 15 mg/kg/day administered for 14 days in presence of AZD6738; assay type: organism-based; details: in vivo, 336 h, time 14 day
SW-620 [18] = experiment: Antitumor activity against human SW620 cells xenografted in Balb/c nude mouse model assessed as decrease in ATM protein level at 15 mg/kg/day measured after 14 days by Western blot analysis; assay type: functional, organism-based; details: time 14.0 day
SW-620 [19] = experiment: Induction of DNA damage in human SW620 cells assessed as gamma-H2AX accumulation at 10 uM by immunoblot analysis; assay type: functional, cell-based; details: time <= 24.0 hrs, TDE = time-dependent effect
SW-620 [20] = experiment: Antitumor activity against human SW620 cells xenografted in Balb/c nude mouse model assessed as decrease in BCL2 protein level at 15 mg/kg/day measured after 14 days by Western blot analysis; assay type: functional, organism-based; details: time 14.0 day
RKO = experiment: Cytotoxicity against human RKO cells assessed as reduction in cell viability incubated for 48 hrs by MTT assay
[21] = Downregulation of ATM level in human HCT-116 cells transfected with ATM shRNA by immunoblot analysis; assay type: functional
[22] = Cytotoxicity against human HIEC-6 cells assessed as reduction in cell viability incubated for 48 hrs by MTT assay; assay type: toxicity, cell-based
NCI-H358 = experiment: Cytotoxicity against human NCI-H358 cells assessed as reduction in cell viability incubated for 48 hrs by MTT assay; details: NCI-H358, 48 h
SW13 = experiment: Cytotoxicity against human SW13 cells assessed as reduction in cell viability incubated for 48 hrs by MTT assay; details: SW13, 48 h
SW-620 [23] = experiment: Induction of DNA damage in human SW620 cells assessed as gamma-H2AX accumulation incubated for 12 hrs by immunoblot analysis; assay type: functional, cell-based; details: dose 2.5-10 µM
SW480 [24] = experiment: Cytotoxicity against human SW480 cells assessed as reduction in cell viability incubated for 48 hrs by MTT assay; details: SW480, 48 h
SW-620 [25] = experiment: Cytotoxicity against human SW620 cells assessed as reduction in cell viability incubated for 48 hrs by MTT assay; details: SW-620, 48 h
[26] = Downregulation of ATM level in human SW480 cells transfected with NC shRNA by immunoblot analysis; assay type: functional
SW480 [27] = experiment: Cytotoxicity against human SW480 cells transfected with NC shRNA assessed as reduction in cell viability measured after 48 hrs by MTT assay; details: SW480, 48 h
SW-620 [28] = experiment: Antitumor activity against human SW620 cells xenografted in Balb/c nude mouse model assessed as increase in cleaved-caspase 3 level at 15 mg/kg/day measured after 14 days by Western blot analysis; assay type: functional, organism-based; details: time 14.0 day
SW-620 [29] = experiment: Downregulation of ATM level in human SW620 cells at 10 uM by immunoblot analysis; assay type: functional, cell-based; details: time <= 24.0 hrs, TDE = time-dependent effect
SW-620 [30] = experiment: Cytotoxicity against human SW620 cells transfected with NC shRNA assessed as reduction in cell viability measured after 48 hrs by MTT assay; details: SW-620, 48 h
SW-620 [31] = experiment: Induction of apoptosis in human SW620 cells measured after 12 hrs by Annexin V-FITC/propidium iodide staining-based flow cytometric analysis; assay type: functional, cell-based; details: dose 5-10 µM
HCT-116 [32] = experiment: Cytotoxicity against human HCT-116 cells assessed as reduction in cell viability incubated for 48 hrs by MTT assay; details: HCT-116, 48 h
SW-620 [33] = experiment: Cytotoxicity against human SW620 cells transfected with ATM shRNA assessed as reduction in cell viability measured after 48 hrs by MTT assay; details: SW-620, 48 h
SW-620 [34] = experiment: Induction of DNA damage in human SW620 cells assessed as accumulation of phosphorylated-chk2 (Thr68) at 10 uM by immunoblot analysis; assay type: functional, cell-based; details: time <= 24.0 hrs, TDE = time-dependent effect
SW480 [35] = experiment: Potentiation of AZD6738 induced DNA damage in human SW480 cells assessed as gamma-H2AX accumulation in nuclei at 5 uM incubated for 12 hrs by immunohistochemical staining based analysis; assay type: functional, cell-based
SW-620 [36] = experiment: Antitumor activity against human SW620 cells xenografted in Balb/c nude mouse model assessed as fibrosis at 15 mg/kg/day measured after 14 days by H and E staining based analysis; assay type: functional, organism-based; details: time 14.0 day
SW-620 [37] = experiment: Induction of DNA damage in human SW620 cells assessed as accumulation of phosphorylated-chk2 (Thr68) measured after 12 hrs by immunoblot analysis; assay type: functional, cell-based; details: dose 2.5-10 µM

Structure (SMILES): Cc1ncsc1-c1ccc(CNC(=O)[C@@H]2C[C@@H](O)CN2C(=O)[C@@H](NC(=O)CCCCCn2cc(CCCN3C(=O)/C(=C4/C(=O)Nc5ccccc54)c4ccccc43)nn2)C(C)(C)C)cc1
- Activity (SW-620 [1]): Dose-Dependent Effect
- IC50 (LoVo): 6.73 µM
- Activity (SW-620 [2]): Active
- Activity [3]: 100%
- Activity (SW480 [4]): Active
- Activity [5]: 23%
- Activity (SW480 [6]): Active
- Activity (K562 [7]): Tde
- IC50 (HCT-116 [8]): 26.4 µM
- Activity (SW480 [9]): Dose-Dependent Effect
- Activity (SW-620 [10]): Active
- Activity (SW-620 [11]): Active
- Activity (SW-620 [12]): Dose-Dependent Effect
- Activity [13]: Non-Toxic
- Activity (SW480 [14]): Tde
- IC50 (K562 [15]): 4.06 µM
- IC50 (SW480 [16]): 12.1 µM
- Activity [17]: Non-Toxic
- Activity (SW-620 [18]): Active
- Activity (SW-620 [19]): Tde
- Activity (SW-620 [20]): Active
- IC50 (RKO): 3.95 µM
- Activity [21]: 15%
- IC50 at 48 h ([22]; HIEC-6 cells): 23.9 µM
- Activity ([22]; hiec-6, 48 h, dose 0.01-50 µM, time 48 hrs): Dose-Dependent Effect
- IC50 (NCI-H358): > 20 µM
- IC50 (SW13): 3.31 µM
- Activity (SW-620 [23]): Dose-Dependent Effect
- IC50 (SW480 [24]): 2.59 µM
- IC50 (SW-620 [25]): 3.7 µM
- Activity [26]: 100%
- IC50 (SW480 [27]): 2.59 µM
- Activity (SW-620 [28]): Active
- Activity (SW-620 [29]): Tde
- IC50 (SW-620 [30]): 3.7 µM
- Activity (SW-620 [31]): Dose-Dependent Effect
- IC50 (HCT-116 [32]): 5.82 µM
- IC50 (SW-620 [33]): 9.81 µM
- Activity (SW-620 [34]): Tde
- Activity (SW480 [35]): Active
- Activity (SW-620 [36]): Active
- Activity (SW-620 [37]): Dose-Dependent Effect
